For 50 compounds, IC50 results are on record in patent US10201533B2, “Substituted quinolizine derivatives useful as HIV integrase inhibitors” (priority 2013, dated 2019).

Where two headings read alike, the source gives them in different places.

The subject of the assay is HIV-1 (NL4-3 strain). Description: microbe, parasite or virus in culture. It counts as cell-based. The conditions noted are these: MT4-GFP cells infected with HIV-1 NL4-3, IP or IC50 from 4-parameter dose response curve.
Setting [1] is: 0% normal human serum (NHS), read-out: WILD TYPE CELL ASSAY Viking IP (0% NHS).
The mark [2] stands for this setting: 100% normal human serum (NHS), read-out: WILD TYPE CELL ASSAY Viking IP (100% NHS).
Where [3] appears, read: Human immunodeficiency virus 1, NL43, 0% normal human serum (NHS), read-out: WILD TYPE CELL ASSAY Viking IP (0% NHS).
The mark [4] stands for this setting: Human immunodeficiency virus 1, NL43, 100% normal human serum (NHS), read-out: WILD TYPE CELL ASSAY Viking IP (100% NHS).

Regarding `COC[C@@]1(C)C(=O)c2c(O)c(=O)c(C(=O)NCc3ccc(F)cc3F)cn2C[C@@H]1OC` [Compound 57], the IC50 under setting [1] amounted to 4.7 nM and the IC50 under setting [2] was determined as 3500 nM.
With `COCC[C@]1(C)C(=O)c2c(O)c(=O)c(C(=O)NCc3ccc(F)cc3F)cn2C[C@@H]1OC` [Compound 60], the IC50 by setting is: under setting [3], 2.9 nM; under setting [4], 2230 nM.
For `COCC[C@@]1(C)C(=O)c2c(O)c(=O)c(C(=O)NCc3cccc(Cl)c3F)cn2C[C@@H]1OC` [Compound 62] the same measures were 0.9 nM and 481 nM.
`COCC[C@@]1(C)C(=O)c2c(O)c(=O)c(C(=O)NCc3cccc(Cl)c3F)cn2C[C@@H]1OC` [Compound 63]: the IC50 reads like this: under setting [1], 0.9 nM; under setting [2], 249 nM.
Regarding `COCC[C@]1(C)C(=O)c2c(O)c(=O)c(C(=O)NCc3cccc(Cl)c3F)cn2C[C@@H]1OC` [Compound 64], the IC50 under setting [2] turned out to be 2960 nM and the IC50 under setting [3] was determined as 0.9 nM.
In the case of `COCC[C@]1(C)C(=O)c2c(O)c(=O)c(C(=O)NCc3cccc(Cl)c3F)cn2C[C@@H]1OC` [Compound 65], the IC50 by setting is: under setting [1], 0.8 nM; under setting [2], 34 nM.
With `COCC[C@@]1(C)C(=O)c2c(O)c(=O)c(C(=O)NCc3ccccc3F)cn2C[C@@H]1OC` [Compound 66], the IC50 was determined as 2.5 nM under setting [3] and 126 nM under setting [4].
Turning to `COCC[C@@]1(C)C(=O)c2c(O)c(=O)c(C(=O)NCc3ccccc3F)cn2C[C@@H]1OC` [Compound 67], the IC50 reads like this: under setting [1], 1.7 nM; under setting [2], 154 nM.
For the compound `COCC[C@]1(C)C(=O)c2c(O)c(=O)c(C(=O)NCc3ccccc3F)cn2C[C@@H]1OC` [Compound 68], the IC50 reads like this: under setting [2], 604 nM; under setting [3], 1.8 nM.
`COCC[C@]1(C)C(=O)c2c(O)c(=O)c(C(=O)NCc3ccccc3F)cn2C[C@@H]1OC` [Compound 69]: the IC50 was found to be 1.2 nM under setting [1] and 24 nM under setting [2].
Take `COCC[C@@]1(C)C(=O)c2c(O)c(=O)c(C(=O)NCc3c(F)cccc3F)cn2C[C@@H]1OC` [Compound 70]: the IC50 runs as follows: under setting [3], 1.9 nM; under setting [4], 80 nM.
`COCC[C@@]1(C)C(=O)c2c(O)c(=O)c(C(=O)NCc3c(F)cccc3F)cn2C[C@@H]1OC` [Compound 71]: the IC50 by setting is: under setting [1], 2.2 nM; under setting [2], 89 nM.
In the case of `COCC[C@]1(C)C(=O)c2c(O)c(=O)c(C(=O)NCc3c(F)cccc3F)cn2C[C@@H]1OC` [Compound 72], the IC50 is, setting by setting: under setting [1], 2.2 nM; under setting [2], 467 nM.
On to `COCC[C@]1(C)C(=O)c2c(O)c(=O)c(C(=O)NCc3c(F)cccc3F)cn2C[C@@H]1OC` [Compound 73], for which the IC50 under setting [1] was 1 nM and the IC50 under setting [2] amounted to 22 nM.
Regarding `COCCC[C@]1(C)C(=O)c2c(O)c(=O)c(C(=O)NCc3ccc(F)cc3F)cn2C[C@@H]1OC` [Compound 74], the IC50 reads like this: under setting [1], 4 nM; under setting [2], 262 nM.
For the compound `COCCC[C@]1(C)C(=O)c2c(O)c(=O)c(C(=O)NCc3ccc(F)cc3F)cn2C[C@@H]1OC` [Compound 75], the IC50 was 0.5 nM under setting [1] and 13 nM under setting [2].
Regarding `COCCC[C@@]1(C)C(=O)c2c(O)c(=O)c(C(=O)NCc3ccc(F)cc3F)cn2C[C@@H]1OC` [Compound 76], the IC50 turned out to be 0.9 nM under setting [3] and 35 nM under setting [4].
Regarding `COCCC[C@@]1(C)C(=O)c2c(O)c(=O)c(C(=O)NCc3ccc(F)cc3F)cn2C[C@@H]1OC` [Compound 77], the IC50 reads like this: under setting [1], 1.2 nM; under setting [2], 60 nM.
Regarding `COCCC[C@]1(C)C(=O)c2c(O)c(=O)c(C(=O)NCc3cccc(Cl)c3F)cn2C[C@@H]1OC` [Compound 78], the IC50 is, setting by setting: under setting [2], 15 nM; under setting [3], 0.8 nM.
For the compound `COCCC[C@]1(C)C(=O)c2c(O)c(=O)c(C(=O)NCc3cccc(Cl)c3F)cn2C[C@@H]1OC` [Compound 79], the IC50 came out at 1 nM under setting [1] and 662 nM under setting [2].
`COCCC[C@@]1(C)C(=O)c2c(O)c(=O)c(C(=O)NCc3cccc(Cl)c3F)cn2C[C@@H]1OC` [Compound 80]: the IC50 is, setting by setting: under setting [2], 101 nM; under setting [3], 1.1 nM.
For `COCCC[C@@]1(C)C(=O)c2c(O)c(=O)c(C(=O)NCc3cccc(Cl)c3F)cn2C[C@@H]1OC` [Compound 81], the IC50 runs as follows: under setting [1], 1 nM; under setting [2], 296 nM.
Regarding `COCCC[C@]1(C)C(=O)c2c(O)c(=O)c(C(=O)NCc3c(F)cccc3F)cn2C[C@@H]1OC` [Compound 82], the IC50 turned out to be 4.1 nM under setting [1] and 160 nM under setting [2].
As for `COCCC[C@]1(C)C(=O)c2c(O)c(=O)c(C(=O)NCc3c(F)cccc3F)cn2C[C@@H]1OC` [Compound 83], the IC50 by setting is: under setting [1], 0.9 nM; under setting [2], 19 nM.
In the case of `COCCC[C@@]1(C)C(=O)c2c(O)c(=O)c(C(=O)NCc3c(F)cccc3F)cn2C[C@@H]1OC` [Compound 84], the IC50 under setting [3] was 1.8 nM and the IC50 under setting [4] was 31 nM.
For the compound `COCCC[C@]1(C)C(=O)c2c(O)c(=O)c(C(=O)NCc3ccccc3F)cn2C[C@@H]1OC` [Compound 86], the IC50 under setting [1] worked out at 1.3 nM and the IC50 under setting [2] is 18 nM.
For `COCCC[C@]1(C)C(=O)c2c(O)c(=O)c(C(=O)NCc3ccccc3F)cn2C[C@@H]1OC` [Compound 87], the IC50 is, setting by setting: under setting [1], 8 nM; under setting [2], 269 nM.
In the case of `COCCC[C@@]1(C)C(=O)c2c(O)c(=O)c(C(=O)NCc3ccccc3F)cn2C[C@@H]1OC` [Compound 88], the IC50 is, setting by setting: under setting [3], 2.3 nM; under setting [4], 63 nM.
For the compound `COCCC[C@@]1(C)C(=O)c2c(O)c(=O)c(C(=O)NCc3ccccc3F)cn2C[C@@H]1OC` [Compound 89], the IC50 under setting [1] was 2.1 nM and the IC50 under setting [2] came out at 73 nM.
On to `COCCC[C@]1(C)C(=O)c2c(O)c(=O)c(C(=O)NCc3c(F)cc(F)cc3F)cn2C[C@@H]1OC` [Compound 90], for which the IC50 under setting [1] stood at 0.8 nM and the IC50 under setting [2] was 13 nM.
As to `COCCC[C@]1(C)C(=O)c2c(O)c(=O)c(C(=O)NCc3c(F)cc(F)cc3F)cn2C[C@@H]1OC` [Compound 91], the IC50 was determined as 3.8 nM under setting [1] and 273 nM under setting [2].
Regarding `COCCC[C@@]1(C)C(=O)c2c(O)c(=O)c(C(=O)NCc3c(F)cc(F)cc3F)cn2C[C@@H]1OC` [Compound 92], the IC50 reads like this: under setting [3], 1.3 nM; under setting [4], 59 nM.
`COCCC[C@@]1(C)C(=O)c2c(O)c(=O)c(C(=O)NCc3c(F)cc(F)cc3F)cn2C[C@@H]1OC` [Compound 93]: the IC50 under setting [1] is 1.2 nM and the IC50 under setting [2] came out at 52 nM.
Take `C[C@@]12CCCC[C@]1(O)Cn1cc(C(=O)NCc3ccc(F)cc3F)c(=O)c(O)c1C2=O` [Compound 94]: the IC50 came out at 1.8 nM under setting [3] and 282 nM under setting [4].
As to `C[C@]12CCCC[C@@]1(O)Cn1cc(C(=O)NCc3ccc(F)cc3F)c(=O)c(O)c1C2=O` [Compound 95], the IC50 by setting is: under setting [3], 2.2 nM; under setting [4], 41 nM.
Turning to `C[C@@]12CCCC[C@]1(O)Cn1cc(C(=O)NCc3ccc(F)c(Cl)c3)c(=O)c(O)c1C2=O` [Compound 96], the IC50 runs as follows: under setting [3], 6.2 nM; under setting [4], more than 8400 nM.
As for `C[C@]12CCCC[C@@]1(O)Cn1cc(C(=O)NCc3ccc(F)c(Cl)c3)c(=O)c(O)c1C2=O` [Compound 97], the IC50 was 2.4 nM under setting [3] and 151 nM under setting [4].
On to `C[C@@]12CCCCC[C@@]1(O)Cn1cc(C(=O)NCc3ccc(F)cc3F)c(=O)c(O)c1C2=O` [Compound 99], for which the IC50 is, setting by setting: under setting [3], 3.7 nM; under setting [4], 616 nM.
For `C[C@]12CCCCC[C@@]1(O)Cn1cc(C(=O)NCc3ccc(F)cc3F)c(=O)c(O)c1C2=O` [Compound 101], the IC50 under setting [3] is 2.1 nM and the IC50 under setting [4] stood at 105 nM.
For `CC12CCCC1(O)Cn1cc(C(=O)NCc3ccc(F)cc3F)c(=O)c(O)c1C2=O` (stereo not shown) [Compound 104], in that order: 3.6 nM and 343 nM.
As to `COC12CCCC1(C)C(=O)c1c(O)c(=O)c(C(=O)NCc3ccc(F)cc3F)cn1C2` (stereo not shown) [Compound 105], the IC50 came out at 3.5 nM under setting [3] and 2290 nM under setting [4].
With `COC12CCCC1(C)C(=O)c1c(O)c(=O)c(C(=O)NCc3ccc(F)cc3)cn1C2` (stereo not shown) [Compound 106], the IC50 by setting is: under setting [3], 3.3 nM; under setting [4], 3340 nM.
With `COC12CCCC1(C)C(=O)c1c(O)c(=O)c(C(=O)NCc3ccc(F)c(F)c3F)cn1C2` (stereo not shown) [Compound 107], the IC50 runs as follows: under setting [3], 5.7 nM; under setting [4], 4930 nM.
Regarding `CC1(C)CCC[C@]2(C)C(=O)c3c(O)c(=O)c(C(=O)NCc4ccc(F)cc4F)cn3C[C@]12O` [Compound 108], the IC50 reads like this: under setting [3], 2 nM; under setting [4], 105 nM.
For `CC1(C)CCC[C@@]2(C)C(=O)c3c(O)c(=O)c(C(=O)NCc4ccc(F)cc4F)cn3C[C@@]12O` [Compound 109] the same measures were 3.2 nM and 714 nM.
`COCO[C@@]12CCCC[C@]1(C)C(=O)c1c(O)c(=O)c(C(=O)NCc3ccc(F)cc3F)cn1C2` [Compound 110]: the IC50 under setting [3] amounted to 2.1 nM and the IC50 under setting [4] amounted to 140 nM.
Take `COCO[C@]12CCCC[C@@]1(C)C(=O)c1c(O)c(=O)c(C(=O)NCc3ccc(F)cc3F)cn1C2` [Compound 111]: the IC50 runs as follows: under setting [3], 3 nM; under setting [4], 858 nM.
`CO[C@@]12CCCC[C@]1(C)C(=O)c1c(O)c(=O)c(C(=O)NCc3ccc(F)cc3F)cn1C2` [Compound 112]: the IC50 under setting [3] worked out at 0.65 nM and the IC50 under setting [4] was found to be 4110 nM.
For the compound `CO[C@]12CCCC[C@@]1(C)C(=O)c1c(O)c(=O)c(C(=O)NCc3ccc(F)cc3F)cn1C2` [Compound 113], the IC50 is 1.3 nM under setting [3] and more than 8000 nM under setting [4].
In the case of `COCCO[C@@]12CCCC[C@]1(C)C(=O)c1c(O)c(=O)c(C(=O)NCc3ccc(F)cc3F)cn1C2` [Compound 114], the IC50 was found to be 1.9 nM under setting [3] and 137 nM under setting [4].
